Laboratory results as given in paper PMC7096397, “Improving the drug-likeness of inspiring natural products - evaluation of the antiparasitic activity against Trypanosoma cruzi through semi-synthetic and simplified analogues of licarin A” (Scientific Reports, 2020).
Entries after “also recorded” stand apart in the source; their conditions may differ. Where two headings read alike, the source gives them in different places.

Experiments:
[1] = test system: T. cruzi (Y strain) trypomastigotes; assay: Anti-trypomastigote assay (resazurin viability); type: cell-based, Trypanosoma cruzi; settings: Trypanosoma cruzi, read-out: IC50 trypo
Experimental: (§1) The cells and parasites were kept at 37 °C in a humidified atmosphere containing 5% CO2.
Benznidazole was used as the standard drug. The optical density was determined in FilterMax F5 (Molecular Devices) at 570 nm[38].
(§2) IC50 and CC50 values were calculated using a sigmoid dose-response curves in Graph–Pad Prism 5.0 software (GraphPad Software - San Diego, CA, USA). For the mechanism of action studies one-way ANOVA (Turkey’s Multiple Comparison test) was used for significance (p < 0.05). The assays were repeated at least twice and the samples were tested in duplicate.

[2] = test system: T. cruzi intracellular amastigotes; assay: Anti-amastigote assay in infected peritoneal macrophages (infection index); type: cell-based, Trypanosoma cruzi; settings: Trypanosoma cruzi, Peritoneal macrophage, in Mus musculus, 48 h, read-out: IC50 Ama
Experimental: as §1
The cells were plated on a 16-well chamber slide – NUNC (Thermo Fisher Scientific) at 1 × 10^5 cells/well and incubated for 24 h at 37 °C in a 5% CO2 humidified incubator. […] Tested compounds were subsequently incubated with infected macrophages for 48 h at 37 °C (5% CO2 humidified incubator) in different nontoxic concentrations. Benznidazole was used as standard drug. At the end of the assay, slides were fixed with MeOH and stained with Giemsa, counted under a light microscope (EVOS M5000, Thermo, USA) and IC50 values were determined by the infection index.
as §2

[3] = Cytotoxicity against mammalian cells (MTT); type: cell-based, Murine; settings: mouse, NCTC clone L929 cells
Experimental: Rhesus monkey kidney cells (LLC-MK2-ATCC CCL 7) were used for the maintenance of trypomastigotes of T. cruzi (Y strain) using RPMI-1640 medium supplemented with 2% fetal bovine serum (FBS). The cells and parasites were kept at 37 °C in a humidified atmosphere containing 5% CO2. Peritoneal macrophages, used in the experiments of anti-amastigote assay, were obtained by washing the peritoneal cavity of BALB/c mice, with RPMI-1640 medium supplemented with 10% FBS and kept at 37 °C in a 5% CO2 humidified incubator. Murine conjunctive cells (NCTC clone 929, ATCC) and LLC-MK2 were kept in RPMI-1640 supplemented with 10% FBS at the same conditions described above.
NCTC cells-clone L929 (6 × 10^4 cells/well) were seeded and incubated with tested compounds (200–1.56 µM) for 48 h at 37 °C in a 5% CO2 humidified incubator. Cytotoxic concentration (CC50) was determined by MTT assay. Optical density was determined in FilterMax F5 (Molecular Devices) at 570 nm. Selectivity Index (SI) was determined using the following ratio: CC50 against NCTC cells/IC50 against parasites.
as §2

[4] = PAMPA intestinal model (GIT); type: in vitro ADME
Experimental: Intestinal permeability of tested compounds was estimated applying the PAMPA model previously developed and validated. Briefly, stock solutions were prepared in dimethyl sulfoxide (DMSO) at the concentrations of 10 mM and then diluted with Tris buffer to give the final concentration donor solution at 300 µM and 5% DMSO. The assay procedure was initiated by filling each well of the microtiter plate (MultiScreen, catalogue no. MATRNPS50, Millipore Corporation, Bedford, MA, USA) with 300 μL of each donor drug solution. Carefully, and avoiding the pipette tip contact with the filter, the hydrophobic filter (0.45 μm) of each acceptor well of the 96-well microfilter plate (MultiScreen-IP, catalogue no. MAIPNTR10, Millipore Corporation, Bedford, MA, USA) was adsorbed with 6 μL of the artificial lipid solution which was composed of 2% of L-α-phosphatidylcholine from soybean dissolved, by sonication, in n-dodecane. Immediately after this application, 150 μL of Tris buffer containing 5% DMSO was added to the receiving well. The receiving well was mounted on the donor plate, keeping the underside of the membrane in contact with the donor solution. The assembled donor–acceptor plates were incubated under constant stirring (3 g) at 25 °C for approximately 16 h. Subsequently, the quantity of each compound presented at the receptor solution (150 μL) was determined by UV/VIS spectrophotometrically.

[5] = PAMPA-BBB model; type: in vitro ADME
Experimental: The methodology herein applied was similar to that described in the previous section, however with the purpose of assessing the permeability of the compounds through the blood brain barrier (BBB). Thus, stock solutions (10 mM) of each test compound were prepared in DMSO and diluted with phosphate buffered saline (PBS) at pH 7.4. The final concentration of donor solutions was 300 μM and DMSO of 5%. Artificial membrane lipid solutions were prepared daily by dissolving, in n-dodecane, the porcine brain lipid extracted as described[40] at the final concentration of 2% (m/v). PAMPA procedure was similar to that described in the previous section although, in PAMPA-BBB, the donor and acceptor solutions were prepared using phosphate buffer saline (PBS) at pH 7.4 and the Papp was obtained through the equation previously reported.

[6] = test system: T. cruzi trypomastigotes; assay: Plasma membrane permeability, Sytox Green probe; type: cell-based, Trypanosoma cruzi; settings: at IC50, up to 120 min, vs untreated parasites
Experimental: The action of compounds 1d, 1e, 3d and 4a in the cell membrane permeability were evaluated in T. cruzi trypomastigotes (2 × 10^6/well) seeded in 96-well black polystyrene microplates. Parasites were washed and incubated in the dark with 1 μM SYTOX Green probe (Molecular Probes) in HANKS’ balanced salts solution (HBSS; Sigma-Aldrich) supplemented with 10 mM D-Glucose (HBSS + Glu) in 96-well black polystyrene microplates[43],[44]. […] The maximum permeabilization was obtained with the addiction of 0.5% Triton X-100. Fluorescence intensities were determined using a fluorimetric microplate reader (FilterMax F5 Multi-Mode Microplate Reader-Molecular Devices) with excitation and emission wavelengths of 485 and 520 nm, respectively. The following internal controls were used in the evaluation: i) the background fluorescence of the compound at the respective wavelengths, ii) the possible interference of DMSO.

[7] = test system: T. cruzi trypomastigotes; assay: Reactive oxygen species (ROS) generation, H2DCFDA probe; type: cell-based, Trypanosoma cruzi; settings: for ROS generation: at IC50, 1 h of treatment; for ROS levels: at IC50, 2 h of treatment
Experimental: After, H2DCFDA probe (Molecular Probes) was added (5 µM) and incubated by 15 min[44]. The fluorescence intensity was measure using a fluorimetric microplate reader (FilterMax F5 Multi-Mode, Molecular Devices) with excitation and emission wavelengths of 485 and 520 nm, respectively. Azide (10 mM) was used as positive control and untreated parasites were used as negative control.

[8] = test system: T. cruzi trypomastigotes; assay: ATP generation (luciferin/luciferase); type: cell-based, Trypanosoma cruzi; settings: at IC50, 2 h of incubation
Experimental: Untreated parasites and treated with the mitochondrial uncoupler CCCP (carbonyl cyanide m-chlorophenylhydrazone - Sigma) at 100 µM, were used as positive and negative controls, respectively. […] Luminescence intensity was measured using a luminometer (FilterMax F5 Multi-Mode, Molecular Devices) and the amount of ATP was calculated from an ATP standard curve.

[9] = test system: T. cruzi trypomastigotes; assay: Mitochondrial membrane potential, JC-1 flow cytometry; type: cell-based, Trypanosoma cruzi; settings: at IC50, 2 h
Experimental: The ΔΨm were analyzed by flow cytometry (Attune NxT flow cytometer - ThermoFisher) with the probe 5,5′,6,6′-tetrachloro-1,1′,3,3′-tetraethylbenzimidazole carbocyanide iodide (JC-1, ThermoFisher). The ratio between red/green fluorescence intensities (BL-2/BL-1; 590 nm/530 nm) were calculated[45],[46]. […] The parasites were incubated in the dark for 10 min at 37 °C and washed in HBSS + Glu to eliminate the non-internalized dye. As internal controls of the assay were used: (i) non-treated cells and (ii) trypomastigotes treated with 100 μM CCCP.

[10] = PAMPA intestinal model (GIT); type: in vitro ADME; settings: read-out: plasma protein binding percentage
[11] = T. cruzi trypomastigotes, 24 h incubation, resazurin
[12] = intracellular amastigotes in BALB/c peritoneal macrophages
[13] = PAMPA intestinal model, 300 µM donor, Tris buffer, 25 °C, 16 h, read-out: Papp GIT
[14] = PAMPA-BBB model, 300 µM donor, PBS pH 7.4, read-out: Papp BBB

SMILES	IC50 [1, 11] [µM]	IC50 [2, 12] [µM]	CC50 at 48 h [3] [µM]	Papp at 16 h, 300 µM ([4]; PAMPA) [×10⁻⁶ cm/s]	Papp at 16 h, 300 µM ([5]; PAMPA, pH 7.4) [×10⁻⁶ cm/s]	Sytox Green fluorescence levels (plasma membrane permeability) [6]	ROS generation [7]	ROS levels [7]	ATP levels [8]	mitochondrial membrane potential [9]	IC50 ([1]; 24 h) [µM]	IC50 [2] [µM]	Papp at 16 h, 300 µM [4, 13] [×10⁻⁶ cm/s]	Papp at 16 h, 300 µM [5, 14] [×10⁻⁶ cm/s]	fraction unbound at 16 h, 300 µM [10]
C=CCc1cc([C@H]2Oc3c(OC)cc(/C=C/C)cc3[C@@H]2C)cc(OC)c1O [1d, 2-allyl-6-methoxy-4-[(2S,3 S)-7-methoxy-3-methyl-5-[(E)-prop-1-enyl]-2,3-dihydrobenzofuran-2-yl]phenol]	5 ± 0.8	> 100	45.5 ± 16.7	0.38	0.28	no changes in the fluorescence levels	increased the reactive oxygen species (ROS) levels; also recorded: increased ROS generation	drop of the levels	increased ATP production	induced hyperpolarization of mitochondrial membrane potential; also recorded: mitochondrial hyperpolarization, but with no statistical significance	–	–	–	–	–
C/C=C/c1cc(OC)c2c(c1)[C@H](C)[C@@H](c1cc(OC)c3oc(C)cc3c1)O2 [1e, 7-methoxy-5-[(2 S,3 S)-7-methoxy-3-methyl-5-[(E)-prop-1-enyl]-2,3-dihydrobenzofuran-2-yl]-2-methyl-benzofuran]	10.5 ± 5.7	> 100	> 200	0.55	0.23	exception of 1e after 120 min	increased the reactive oxygen species (ROS) levels; also recorded: increased ROS generation	drop of the levels	no significant alterations in ATP levels	induced hyperpolarization of mitochondrial membrane potential; also recorded: mitochondrial hyperpolarization, but with no statistical significance	–	–	–	–	–
COc1ccc(C=O)cc1OC [2a, 3,4-dimethoxybenzaldehyde]	–	–	> 200	–	–	–	–	–	–	–	> 100	> 100	20.7	7	< 0.1
COc1cc(CO)ccc1OC(C)=O [3b, [4-(hydroxymethyl)-2-methoxy-phenyl] acetate]	5.1 ± 0.7	> 100	45.8 ± 14.9	5.07	3.67	no changes in the fluorescence levels	increased ROS generation	drop of the levels	increased ATP production	mitochondrial hyperpolarization, but with no statistical significance	–	–	–	–	–
C/C=C/c1ccc(OC)c(OC)c1 [4a, 1,2-dimethoxy-4-[(E)-prop-1-enyl]benzene]	–	–	> 200	–	–	no changes in the fluorescence levels	increased the reactive oxygen species (ROS) levels; also recorded: increased ROS generation	drop of the levels	increased ATP production	–	8.8 ± 2	> 100	15.9	1.29	< 0.1
C=CCc1ccc(O)c(OC)c1 [compound 5, eugenol]	–	–	> 200	–	–	–	–	–	–	–	> 100	> 100	14.4	3.98	< 0.1
